Article PMC6633864, “Intestinal Absorption Profile of Three Polygala Oligosaccharide Esters in Polygalae Radix and the Effects of Other Components in Polygalae Radix on Their Absorption” (Evidence-based Complementary and Alternative Medicine : eCAM, 2019)

Assays:
[1] = Intestinal absorption in vitro by the everted rat gut sac model; format: in vitro ADME; conditions: n = 5
[2] = Drug stability in blank intestinal circulation fluid; format: in vitro ADME, rat; conditions: 37°C, 3 h
Description: The K–R culture solution was circulated in rat intestines for 3 h. PRE, SA5, SA6, and DISS were dissolved in the blank intestinal circulation fluid at concentrations of 12 mg/ml, 0.050 mg/ml, 0.086 mg/ml, and 0.198 mg/ml, respectively, and incubated at 37°C for 3 h. Aliquots of 1 ml samples were taken out at 0, 0.5, 1, 2, and 3 h after preparation for analysis.

[3] = parameters: method as in PMID 24043590; conditions: cited from earlier work
[4] = in PRE, high concentration (SA5 0.075, SA6 0.130, DISS 0.296 mg/ml), 180 min
[5] = in PRE, low concentration (SA5 0.025, SA6 0.043, DISS 0.099 mg/ml), 180 min
[6] = monomer, high concentration (SA5 0.075, SA6 0.130, DISS 0.296 mg/ml)
[7] = monomer, low concentration (SA5 0.025, SA6 0.043, DISS 0.099 mg/ml)

COc1cc(/C=C/C(=O)OC[C@H]2O[C@H](O[C@]3(CO)O[C@H](CO)[C@@H](O)[C@@H]3OC(=O)/C=C/c3cc(OC)c(O)c(OC)c3)[C@H](O)[C@@H](O)[C@@H]2O)cc(OC)c1O [DISS, 3,6′-disinapoyl sucrose]
K a [1, 4]: 0.109 ± 0.010 ^∗∗,## μg·cm^−2·min^−1 | P (%) percentage of absorption [1, 4]: 2.54 ± 0.19% | P app [1, 4]: 0.61 ± 0.057 ×10^−5cm/s | K a [1, 5]: 0.036 ± 0.0019 μg·cm^−2·min^−1 | P (%) percentage of absorption [1, 5]: 2.55 ± 0.03% | P app [1, 5]: 0.61 ± 0.0033 ×10^−5cm/s | K a [1, 6]: 0.049 ± 0.022 ^∗∗##, μg·cm^−2·min^−1 | P (%) percentage of absorption [1, 6]: 1.18 ± 0.04% | P app [1, 6]: 0.28 ± 0.079 ×10^−5cm/min | K a [1, 7]: 0.015 ± 0.0005 μg·cm^−2·min^−1 | P (%) percentage of absorption [1, 7]: 1.13 ± 0.05% | P app [1, 7]: 0.26 ± 0.068 ×10^−5cm/min | stability in the blank intestinal circulation solution (in words) [2]: stable at 37 °C for 3 h | effect of ATP energy inhibitor sodium azide on absorption [3]: no effect | effect of P-gp inhibitor cyclosporine A on absorption [3]: no significant effect | effect of paracellular enhancers EDTA and sodium caprate (SC) on Papp [3]: could increase Papp
